From patent US8980906B2, “Pyridonemorphinan analogs and biological activity on opioid receptors” (Purdue Pharma L.P., priority 2012, dated 2015)

Key:
μ-opioid receptor [1] = target: T1, μ-opioid receptor (Homo sapiens (Human), UniProt P35372); assay: μ-opioid receptor radioligand dose-displacement binding assay ([3H]-diprenorphine); conditions: binding affinity, [3H]-diprenorphine displacement; read-out: Ki (nM) Opioid Receptor μ
Description: μ-Opioid Receptor Binding Assay Procedures: Radioligand dose-displacement binding assays for μ-opioid receptors used 0.3 nM [^3H]-diprenorphine (Perkin Elmer, Shelton, Conn.), with […] membrane protein/well in a final volume of 500 μl binding buffer (10 mM MgCl2, 1 mM EDTA, 5% DMSO, 50 mM HEPES, pH 7.4). Reactions were carried out in the absence or presence of increasing concentrations of unlabeled naloxone. All reactions were conducted in 96-deep well polypropylene plates for 2 hours at room temperature. Binding reactions were terminated by rapid filtration onto 96-well Unifilter GF/C filter plates (Perkin Elmer, Shelton, Conn.), presoaked in 0.5% polyethylenimine using a 96-well tissue harvester (Perkin Elmer, Shelton, Conn.) followed by performing three filtration washes with 500 μl of ice-cold binding buffer. Filter plates were subsequently dried at 50° C. for 2-3 hours. BetaScint scintillation cocktail (Perkin Elmer, Shelton, Conn.) was added (50 μl/well), and plates were counted using a Packard Top-Count for 1 min/well. The data were analyzed using the one-site competition curve fitting functions in GraphPad PRISM™ v. 3.0 or higher (San Diego, Calif.), or an in-house function for one-site competition curve-fitting.

δ-opioid receptor = δ-opioid receptor (Homo sapiens (Human), UniProt P41143); assay: δ-opioid receptor radioligand dose-displacement binding assay ([3H]-Naltrindole); conditions: binding affinity, [3H]-Naltrindole displacement
Description: δ-Opioid Receptor Binding Assay Procedures: δ-Opioid Receptor Binding Assay Procedures were conducted as follows. Radioligand dose-displacement assays used 0.2 nM [^3H]-Naltrindole (Perkin Elmer, Shelton, Conn.; 33.0 Ci/mmole) with 5 μg membrane protein (Perkin Elmer, Shelton, Conn.) in a final volume of 500 μl binding buffer (5 mM MgCl2, 5% DMSO, 50 mM Trizma base, pH 7.4). Non-specific binding was determined in the presence of 25 μM unlabeled naloxone. All reactions were performed in 96-deep well polypropylene plates for 1 hour at a temperature of about 25° C. Binding reactions were terminated by rapid filtration onto 96-well Unifilter GF/C filter plates (Perkin Elmer, Shelton, Conn.) presoaked in 0.5% polyethylenimine (Sigma). Harvesting was performed using a 96-well tissue harvester (Perkin Elmer, Shelton, Conn.) followed by five filtration washes with 500 μl ice-cold binding buffer. Filter plates were subsequently dried at 50° C. for 1-2 hours. Fifty μl/well scintillation cocktail (Perkin Elmer, Shelton, Conn.) was added and plates were counted in a Packard Top-Count for 1 min/well.

μ-opioid receptor [2] = target: T1, μ-opioid receptor; assay: μ-opioid receptor [35S]GTPγS functional assay, HEK-293 or CHO cells; format: biochemical
κ-opioid receptor = κ-opioid receptor (Homo sapiens (Human), UniProt P41145); assay: κ-opioid receptor [35S]GTPγS functional assay, HEK-293 or CHO cells; format: biochemical; conditions: for Emax: relative to U69,593, HEK-293 or CHO cells

Sequence of δ-opioid receptor (P41143 whole entry, looked up): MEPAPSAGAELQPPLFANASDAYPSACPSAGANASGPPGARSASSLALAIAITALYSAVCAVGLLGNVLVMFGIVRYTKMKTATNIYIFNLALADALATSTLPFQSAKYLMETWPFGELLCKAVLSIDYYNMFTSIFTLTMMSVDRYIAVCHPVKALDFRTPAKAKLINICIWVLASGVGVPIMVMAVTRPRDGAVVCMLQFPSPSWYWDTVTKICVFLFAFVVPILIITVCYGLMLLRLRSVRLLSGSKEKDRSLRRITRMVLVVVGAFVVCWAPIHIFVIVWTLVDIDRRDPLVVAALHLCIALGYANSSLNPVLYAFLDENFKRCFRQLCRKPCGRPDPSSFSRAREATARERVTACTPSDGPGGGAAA

Structure (SMILES)	Ki (μ-opioid receptor [1])	Ki (δ-opioid receptor)	EC50 (μ-opioid receptor [2])	EC50 (κ-opioid receptor)	Emax (κ-opioid receptor)
NC(=O)c1cc2c([nH]c1=O)C[C@]13CCN(CC4CC4)[C@H](Cc4ccc(O)cc41)[C@]3(O)C2 [Compound 5, (6R,6aS,12aR)-15-(cyclopropylmethyl)-2,6a-dihydroxy-10-oxo-6,6a,7,10,11,12-hexahydro-5H-6,12a-(epiminoethano)naphtho[2,1-g]quinoline-9-carboxamide]	6.55 ± 2.06 nM	26.4 ± 7.23 nM	> 20 µM	4.37 ± 1.11 nM	10.2 ± 1.18%
O=C(O)c1cc2c([nH]c1=O)C[C@]13CCN(CC4CC4)[C@H](Cc4ccc(O)cc41)[C@]3(O)C2 [Compound 9, (6R,6aS,12aR)-15-(cyclopropylmethyl)-2,6a-dihydroxy-10-oxo-6,6a,7,10,11,12-hexahydro-5H-6,12a-(epiminoethano)naphtho[2,1-g]quinoline-9-carboxylic acid]	3.11 ± 0.9 nM	18.5 ± 2.14 nM	> 20 µM	> 20000 nM	2.33 ± 1.33%
O=C(O)c1cc2c([nH]c1=O)C[C@]13CCN(CC4CC4)[C@H](Cc4ccc(O)cc41)[C@@H]3C2 [Compound 11, (6R,6aR,12aS)-15-(cyclopropylmethyl)-2-hydroxy-10-oxo-6,6a,7,10,11,12-hexahydro-5H-6,12a-(epiminoethano)naphtho[2,1-g]quinoline-9-carboxylic acid]	0.52 ± 0.12 nM	–	> 20 µM	1.4 ± 0.56 nM	19 ± 1.53%
